According to BindingDB's records for doi:10.1074/jbc.271.28.16435 (Merck Research Laboratories, 1996):

What was measured:
[1] = molecular target: T1, Neuropeptide Y receptor type 5 (Mus musculus, UniProt O70342)
T1 sequence (O70342 whole entry): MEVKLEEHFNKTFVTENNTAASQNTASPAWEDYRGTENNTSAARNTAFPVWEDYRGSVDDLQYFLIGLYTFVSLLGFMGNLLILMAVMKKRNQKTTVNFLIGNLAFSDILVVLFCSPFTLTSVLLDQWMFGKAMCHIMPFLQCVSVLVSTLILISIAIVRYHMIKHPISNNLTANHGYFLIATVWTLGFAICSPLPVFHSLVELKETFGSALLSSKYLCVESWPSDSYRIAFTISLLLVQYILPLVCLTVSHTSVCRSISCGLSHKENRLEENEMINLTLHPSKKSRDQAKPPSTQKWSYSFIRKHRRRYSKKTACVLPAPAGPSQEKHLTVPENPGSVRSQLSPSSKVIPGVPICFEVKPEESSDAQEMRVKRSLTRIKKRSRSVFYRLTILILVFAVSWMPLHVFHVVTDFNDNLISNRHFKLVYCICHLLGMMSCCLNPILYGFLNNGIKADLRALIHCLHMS

[2] = molecular target: T2, Neuropeptide Y receptor type 1 (Mus musculus, UniProt Q04573)
T2 sequence (Q04573 whole entry): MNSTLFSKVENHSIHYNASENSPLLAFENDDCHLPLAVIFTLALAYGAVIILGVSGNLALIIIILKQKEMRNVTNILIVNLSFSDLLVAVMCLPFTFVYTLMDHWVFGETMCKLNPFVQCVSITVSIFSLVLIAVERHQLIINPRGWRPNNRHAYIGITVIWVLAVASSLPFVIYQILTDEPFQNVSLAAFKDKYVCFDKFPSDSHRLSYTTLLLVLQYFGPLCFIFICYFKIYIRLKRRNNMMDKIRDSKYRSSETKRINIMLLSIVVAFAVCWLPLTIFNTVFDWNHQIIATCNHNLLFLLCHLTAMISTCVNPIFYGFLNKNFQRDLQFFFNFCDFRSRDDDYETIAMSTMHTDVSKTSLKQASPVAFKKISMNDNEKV

## CC[C@H](C)[C@H](NC(=O)[C@H](Cc1ccc(O)cc1)NC(=O)[C@H](CCCNC(=N)N)NC(=O)[C@H](CCCNC(=N)N)NC(=O)[C@H](CC(C)C)NC(=O)[C@H](CC(=O)O)NC(=O)[C@H](C)NC(=O)[C@H](C)NC(=O)[C@H](Cc1ccc(O)cc1)NC(=O)[C@H](CCC(N)=O)NC(=O)[C@H](C)NC(=O)[C@H](CCSC)NC(=O)[C@H](CCC(N)=O)NC(=O)[C@H](CCC(=O)O)NC(=O)[C@@H]1CCCN1C(=O)[C@@H](NC(=O)[C@H](C)NC(=O)[C@H](CC(N)=O)NC(=O)[C@H](CC(=O)O)NC(=O)CNC(=O)[C@@H]1CCCN1C(=O)[C@H](Cc1ccc(O)cc1)NC(=O)[C@@H](NC(=O)[C@@H]1CCCN1C(=O)[C@H](CCC(=O)O)NC(=O)[C@H](CC(C)C)NC(=O)[C@@H]1CCCN1C(=O)[C@H](C)N)C(C)C)[C@@H](C)O)C(=O)N[C@@H](CC(N)=O)C(=O)N[C@@H](CCSC)C(=O)N[C@@H](CC(C)C)C(=O)N[C@H](C(=O)N[C@@H](CCCNC(=N)N)C(=O)N1CCC[C@H]1C(=O)N[C@@H](CCCNC(=N)N)C(=O)N[C@@H](Cc1ccc(O)cc1)C(N)=O)[C@@H](C)O [CAS_59763-91-6]
[1]
  Ki: 1000 nM
[2]
  Ki: 122 nM
